# Where “and” joins values, the source holds several entries; their conditions need not be identical. Equal values may be shown once. Entries after “also recorded” stand apart in the source; their conditions may differ. Read-outs that look alike come from different tables or passages of the source.
# Tests used:
# Format in all cases: cell-based
# Hepatitis B virus [1] = test: CP-51 against HBV-induced antigen syntheses in HEP-G2 cells persistently infected with HBV (Table 3); details: for activity at 10 µM / inhibition at 10 µM: Hepatitis B virus; for activity at 10 µM: HepG2, 216 h, 9 days treatment; for inhibition at 10 µM: HepG2
# Procedure: (§1) HEP-G2 cells persistently infected with HBV were treated daily with fresh D-MEM containing 20% FBS and 10 μM compound. After 9 days incubation and treatment, the overlay medium was harvested to assay the quantity of Hepatitis B virus s antigen (HBsAg) and HBeAg by EIA (Abbott Laboratories). The overlay medium was diluted to levels of antigen in the linear range of the assay. Standard curves using dilutions of positive HBsAg and HBeAg controls were included in each assay. Virion DNA was assayed using the method set forth in Korba and Gerin, Antiviral Res., 19, 5,5-70 (1992), incorporated by reference herein. HBV DNA was extracted from the overlay medium containing virus particles and analyzed by a slot-blot hybridization technique using ^32 P-labelled 3.2 Kb Eco R1 HBV DNA fragment by comparisons to HBV standards present on nitrocellulose filters using an AMBIS beta scanner. EC90 values (90% effective concentration, i.e., drug concentration which induces a 90% decrease in the levels of HBV DNA replication intermediates in treated versus control cells) were calculated by linear regression analysis. The relative levels of HBsAg, HBeAg and virion DNA were calulated as a percentage of the average levels obtained from the untreated controls.
# In contrast, CP-51 inhibited HBeAg and HBcAg syntheses by 76 and 68%, respectively.
# Hepatitis B virus [2] = test: Effects of CP-51 on HBV-induced DNA and RNA synthesis (Table 4); details: for mrna remaining at 10 µM / activity at 10 µM / inhibition at 10 µM: Hepatitis B virus; for mrna remaining at 10 µM / activity at 10 µM: 9 days treatment
# Procedure: as §1
# Experiments were performed to determine the effects of CP-51 on HBV induced DNA and RNA syntheses. HEP-G2 cells persistently infected with HBV were treated daily with fresh D-MEM containing 20% FBS and 10 μM compound. After 9 days incubation and treatment the cells and overlay medium were harvested separately to assay the quantity of nucleic acids. Details of the methodology of the assays are given in Section B above. Extracellular virion DNA in untreated cells ranged from 50 to 150 pg/ml in the overlay medium. Intracellular HBV DNA replication intermediates (RI) in untreated cells ranged from 50 to 100 pg/μg cell DNA. Hybridization analysis results in about 1 pg intracellular HBV DNA/μg cellular DNA to 2-3 genomic copies per cell and 1.0 pg of extracellular HBV DNA/ml overlay medium to […] viral particles/ml. HBV RNA was analyzed by Northern blot hybridization analysis using a ^32 P-labeled 3.2 Kb gel-purified cloned genomic probe. Quantitive analysis of intracellular HBV DNA anc 14BV RNA was performed using an AMBIS beta scanner.
# Hepatitis B virus [3] = test: Anti-hepatitis B virus activity in HEP-G2 cells persistently infected with HBV (Table 2); details: for activity at 10 µM: Hepatitis B virus, HepG2, 216 h, 9 days treatment
# How it was run: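 HBV-persistently infected HepG2 cells were dosed daily with 10 μM compound in 20% FBS medium for 9 days. Medium HBsAg and HBeAg were measured by EIA and virion DNA by slot-blot hybridisation, each relative to untreated controls. EC90 (90% drop in HBV DNA replication intermediates) came from linear regression.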
# Hepatitis B virus [4] = test: Effect of alkyl lipids on HBV replication in HBV persistently infected human HEP G2 cells (Table 6); details: for Intracellular HBV DNA, Mono (episomal 3.2-3.8 Kb HBV genomes) / Intracellular HBV DNA, RI (replication intermediates): nine days
# How it was run: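 Persistently HBV-infected HepG2 cells exposed to compound for nine days at 37 °C, intracellular HBV DNA analysed 24 h after day nine. Episomal 3.2-3.8 Kb genomes and replication intermediates normalized to integrated HBV DNA; virion DNA detection cut-off 0.1 pg DNA/ml culture medium.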
# Hepatitis B virus [5] = test: Effect on synthesis of antigen markers in persistently infected human HEP G2 cell cultures (Table 7)
# How it was run: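 Persistently infected HepG2 cells treated with compound for nine days at 37° C. Culture medium then harvested: HBsAg and HBeAg quantified by EIA, virion DNA by hybridisation-based DNA measurement. Sensitivity cut-off 0.1 pg DNA/ml medium.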
# [6] = Cytotoxicity in HBV persistently infected human HEP G2 cells, neutral red dye uptake (Table 5); details: human, hep-g2 cells, % of Control Neutral Red Dye Uptake
# How it was run: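 HBV-transfected HEP-G2 monolayers in RPMI-1640 were given compound at four serial concentrations in triplicate for nine days at 37 °C, with periodic medium replacement. Toxicity from 0.01% neutral red uptake (A510), as percent of nine untreated control wells on the same plate.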
smiles,measurement,setting,value
"CCCCCCCCCCCCCCCCCC(=O)NCC(COP(=O)([O-])OCC[N+](C)(C)C)OCC (racemic) [CP-51, rac-3-octadecanamido-2-ethyoxy-1-propylphosphocholine]",inhibitory activity against HBsAg synthesis,"Hepatitis B virus [1]; 10 μM, in words",no inhibitory activity
same,activity at 10 µM,"Hepatitis B virus [1]; 10 μM, read-out: Relative Levels of HBcAg",32%
same,activity at 10 µM,"Hepatitis B virus [1]; 10 μM, read-out: Relative Levels of HBeAg",24%
same,activity at 10 µM,"Hepatitis B virus [1]; 10 μM, read-out: Relative Levels of HBsAg",88%
same,inhibition at 10 µM,"Hepatitis B virus [1]; 10 μM, read-out: inhibition of HBcAg synthesis",68%
same,inhibition at 10 µM,"Hepatitis B virus [1]; 10 μM, read-out: inhibition of HBeAg synthesis",76%
same,inhibitory activity against HBeAg and HBcAg (core and e antigen) syntheses,Hepatitis B virus [1]; in words,selective inhibitory activity; also recorded: inhibit the production of the HBV antigens core antigen and e antigen
same,effect on HBV-induced RNA syntheses,"Hepatitis B virus [2]; 10 μM, in words",no significant effects
same,mrna remaining at 10 µM,"Hepatitis B virus [2]; HepG2, 216 h, 10 μM, read-out: Relative Level of 2.1 Kb RNA",112%
same,activity at 10 µM,"Hepatitis B virus [2]; HepG2, 216 h, 10 μM, read-out: Relative Level of 3.2 Kb DNA",42%
same,mrna remaining at 10 µM,"Hepatitis B virus [2]; HepG2, 216 h, 10 μM, read-out: Relative Level of 3.6 Kb RNA",84%
same,mrna remaining at 10 µM,"Hepatitis B virus [2]; HepG2, 216 h, 10 μM, read-out: Relative Level of Total RNA",112%
same,activity at 10 µM,"Hepatitis B virus [2]; HepG2, 216 h, 10 μM, read-out: Relative Level of Virion DNA",2%
same,activity at 10 µM,"Hepatitis B virus [2]; HepG2, 216 h, 10 μM, replication intermediates, read-out: Relative Level of HBV RI",12%
same,inhibition at 10 µM,"Hepatitis B virus [2]; HepG2, 216 h, 10 μM, read-out: inhibition of 3.2 Kb DNA synthesis",58%
same,inhibition at 10 µM,"Hepatitis B virus [2]; 10 μM, read-out: inhibition of replication intermediates (RI) DNA synthesis",88%
same,inhibition at 10 µM,"Hepatitis B virus [2]; 10 μM, read-out: inhibition of virion DNA synthesis",98%
same,selectivity for HBV-induced antigens and nucleic acids,Hepatitis B virus [2]; in words,"selective for inhibiting HBV-induced HBcAg, HBeAg, virion DNA and HBV RI syntheses but not HBsAg or RNA syntheses"
same,activity against HBV-induced virion DNA and HBeAg syntheses,"Hepatitis B virus [3]; 10 μM, in words",potent inhibitory activity
same,activity at 10 µM,"Hepatitis B virus [3]; 10 μM, read-out: Relative Level of HBeAg",28%
same,activity at 10 µM,"Hepatitis B virus [3]; 10 μM, read-out: Relative Level of HBsAg",99%
same,activity at 10 µM,"Hepatitis B virus [3]; 10 μM, read-out: Relative Level of Virion DNA",2%
same,anti-HBV activity,Hepatitis B virus [3]; in words,most potent anti-HBV compound; also recorded: most potent anti-HBV activity
same,"Intracellular HBV DNA, Mono (episomal 3.2-3.8 Kb HBV genomes)",Hepatitis B virus [4]; 0.1 μM,2.7 pg/μg Cell DNA and 2.4 pg/μg Cell DNA and 2.3 pg/μg Cell DNA and 2.5 pg/μg Cell DNA and 2.9 pg/μg Cell DNA and 2.2 pg/μg Cell DNA and 2.6 pg/μg Cell DNA and 2.1 pg/μg Cell DNA
same,"Intracellular HBV DNA, RI (replication intermediates)",Hepatitis B virus [4]; 0.1 μM,54 pg/μg Cell DNA and 62 pg/μg Cell DNA and 51 pg/μg Cell DNA
same,HBV Virion DNA,"Hepatitis B virus [4]; 1 μM, Day 9",9 pg/ml Culture Medium and 8 pg/ml Culture Medium and 12 pg/ml Culture Medium and 10 pg/ml Culture Medium and 13 pg/ml Culture Medium and 11 pg/ml Culture Medium and 14 pg/ml Culture Medium and 16 pg/ml Culture Medium
same,"Intracellular HBV DNA, Mono (episomal 3.2-3.8 Kb HBV genomes)",Hepatitis B virus [4]; 1 μM,2.2 pg/μg Cell DNA and 2.3 pg/μg Cell DNA and 2.4 pg/μg Cell DNA and 2.6 pg/μg Cell DNA and 2.0 pg/μg Cell DNA and 2.1 pg/μg Cell DNA
same,"Intracellular HBV DNA, RI (replication intermediates)",Hepatitis B virus [4]; 1 μM,12 pg/μg Cell DNA and 16 pg/μg Cell DNA and 17 pg/μg Cell DNA and 14 pg/μg Cell DNA and 13 pg/μg Cell DNA and 23 pg/μg Cell DNA and 21 pg/μg Cell DNA and 18 pg/μg Cell DNA
same,HBV Virion DNA,"Hepatitis B virus [4]; 10 μM, Day 0",59 pg/ml Culture Medium and 58 pg/ml Culture Medium and 60 pg/ml Culture Medium and 78 pg/ml Culture Medium and 51 pg/ml Culture Medium and 56 pg/ml Culture Medium and 64 pg/ml Culture Medium
same,HBV Virion DNA,"Hepatitis B virus [4]; 10 μM, Day 3",55 pg/ml Culture Medium and 49 pg/ml Culture Medium and 44 pg/ml Culture Medium and 48 pg/ml Culture Medium and 33 pg/ml Culture Medium and 30 pg/ml Culture Medium and 36 pg/ml Culture Medium and 40 pg/ml Culture Medium
same,HBV Virion DNA,"Hepatitis B virus [4]; 10 μM, Day 6",20 pg/ml Culture Medium and 13 pg/ml Culture Medium and 10 pg/ml Culture Medium and 18 pg/ml Culture Medium and 12 pg/ml Culture Medium and 11 pg/ml Culture Medium and 14 pg/ml Culture Medium
same,"Intracellular HBV DNA, Mono (episomal 3.2-3.8 Kb HBV genomes)",Hepatitis B virus [4]; 10 μM,1.7 pg/μg Cell DNA and 1.9 pg/μg Cell DNA and 1.8 pg/μg Cell DNA and 2.0 pg/μg Cell DNA and 1.3 pg/μg Cell DNA and 1.1 pg/μg Cell DNA and 1.2 pg/μg Cell DNA and 1.0 pg/μg Cell DNA
same,inhibition of HBV virion DNA and intracellular HBV RI DNA levels,"Hepatitis B virus [4]; in words, versus ddC",markedly inhibited; also recorded: substantially inhibited
same,Relative Level of HBeAg,"Hepatitis B virus [5]; 10 μM, nine days, 12960 min",20 % of Untreated Control
same,Relative Level of HBsAg,"Hepatitis B virus [5]; 10 μM, nine days, 12960 min",78 % of Untreated Control and 114 % of Untreated Control
same,activity at 10 µM,"Hepatitis B virus [5]; Hepatitis B virus, HepG2, 216 h, 10 μM, nine days, read-out: Relative Level of HBeAg",23%
same,effect on HBsAg levels released into the culture medium,Hepatitis B virus [5]; in words,None of the compounds tested
same,reduction in HBeAg and virion DNA levels,Hepatitis B virus [5]; in words,caused a reduction; also recorded: most active compounds in suppressing HBeAg and virion DNA levels
same,"viability at 216 h, 3 µM",[6],98 ± 3%
same,"viability at 216 h, 10 µM",[6],102 ± 1%
same,"viability at 216 h, 30 µM",[6],100 ± 3%
